These results are taken from patent publication US4517299A, “Acetylesterases” (Fujisawa Pharmaceutical Co., Ltd., priority 1980, dated 1985).

Test [1] deals with Aureobasidium pullulans IFO 4466 Acetylesterase 4466-II (Enzyme solution B). Put plainly: Determination of Km, hydrolysis of cephalosporin C to deacetylcephalosporin C (HPLC). It counts as biochemical. Particulars: 0.05M acetate buffer pH 4.0, 30° C., one hour, cephalosporin C sodium dihydrate 0.2-5%, read-out: Km (substrate cephalosporin C). As for the experimental part: (§1) (In case that the substrate is cephalosporin C)
(§2) Km values of Acetylesterase 4466-I and Acetylesterase 4466-II were determined in the following method.
(§3) To 0.05M acetate buffer solution (pH 4.0) containing cephalosporin C sodium dihydrate in a various concentration (0.2-5%)(4.5 ml), was added enzyme solution (0.5 ml).
(§4) The reaction mixture was incubated on a shaker at 30° C. for an hour. Subsequently, produced deacetyl cephalosporin C and unreacted cephalosporin C were determined by high pressure liquid chromatography. Km values of each esterase were calculated in a conventional manner.

Test [2] concerns Aureobasidium pullulans IFO 4466 Acetylesterase 4466-I (Enzyme solution A). Described as above. Particulars: 0.05M acetate buffer pH 4.0, 30° C., one hour, cephalosporin C sodium dihydrate 0.2-5%, read-out: Km (substrate cephalosporin C). It counts as biochemical. As for the experimental part: as §1, §2, §3, §4

Usually Km stands for the concentration of substrate that gives half-maximal velocity. On to `CC(=O)OCC1=C(C(=O)O)N2C(=O)[C@@H](NC(=O)CCC[C@@H](N)C(=O)O)[C@H]2SC1` [cephalosporin C], for which the Km in test [1] turned out to be 13.7 mM; in test [2], 11.5 mM.
